≈ marks a conversion by molar mass, not a printed value. Like-named read-outs stand apart in the source and are kept apart here.
Assays:
[1] = test system: Candida glabrata ATCC 90030; experiment: Broth microdilution MIC/MFC; format: cell-based; conditions: Nakaseomyces glabratus, ATCC90030, read-out: MIC
Source text: (§1) In vitro antimicrobial activity assays - Methodology
(§2) The examined compounds 1 - 24 were screened in vitro for antibacterial and antifungal activities using the broth microdilution method according to procedure reported earlier by our research group and European Committee on Antimicrobial Susceptibility Testing (EUCAST) and Clinical and Laboratory Standards Institute (CLSI) guidelines against a panel of reference and clinical or saprophytic strains of microorganisms, in-cluding Gram-positive bacteria, Staphylococcus aureus ATCC 43300 (Methicillin Resistant S. aureus – MRSA), Staphylococcus aureus ATCC 29213 (Methicillin Susceptible S. aureus – MSSA), Staphylococcus epidermidis ATCC 12228, Enterococcus faecalis ATCC 29212, Micro-coccus luteus ATCC 10240, Bacillus subtilis ATCC 6633 and Bacillus cereus ATCC 10876), Gram-negative bacteria (Bordetella bronchiseptica ATCC 4617, Escherichia coli ATCC 25922, Klebsiella pneumoniae ATCC 13883, Proteus mirabilis ATCC 12453, Salmonella typhimurium ATCC 14028 and Pseudomonas aeruginosa ATCC 9027) and fungi belonging to yeasts (Can-dida albicans ATCC 10231, Candida albicans ATCC 2091, Candida parapsilosis ATCC 22019, Candida glabrata ATCC 90030 and Candida krusei ATCC 14243). The microorganisms be-longing to ATCC came from American Type Culture Collection, routinely used for the evaluation of antimicrobials. All the used microbial cultures were first subcultured on nu-trient agar or Sabouraud agar at 35°C for 18-24 h or 30°C for 24-48 h for bacteria and fungi, […]
(§3) The surface of Mueller-Hinton agar (for bacteria) and RPMI 1640 with MOPS (for fungi) were inoculated with the suspensions of bacterial or fungal species. Microbial suspensions were prepared in sterile saline with an optical density of McFarland standard scale 0.5.
(§4) Samples containing examined compounds were dissolved in dimethyl sulfoxide (DMSO).
(§5) Furthermore, bacterial and fungal suspensions were put onto Petri dishes with solid me-dia containing 2 mg/mL of the tested compounds followed incubation at 37°C for 24h and 30°C for 48h for bacteria and fungi, respectively. The inhibition of microbial growth was judged by comparison with a control culture prepared without any sample tested. Ciprof-loxacin, vancomycin, nitrofurantoin, cefuroxime, ampicillin or nystatin (Sigma) were used as a reference antibacterial or antifungal compounds, respectively.
(§6) Subsequently, the MIC (Minimal Inhibitory Concentration) of the compounds was ex-amined by the microdilution broth method, using their two-fold dilutions in Mueller- […]
(§7) Hinton broth or (for bacteria) and RPMI 1640 broth with MOPS (for fungi) prepared in 96-well polystyrene plates. Final concentrations of the compounds ranged from 1000 to 0.488 µg/ml. Microbial suspensions were prepared in 0.85% NaCl with an optical density of 0.5 McFarland standard. Next each bacterial or fungal suspension was added per each well containing broth and various concentrations of the examined compounds. After incuba-

[2] = test system: Candida albicans ATCC 2091; experiment: Broth microdilution MIC/MFC; format: cell-based; conditions: for MFC: ATCC2091, read-out: MFC; for MIC: ATCC2091, read-out: MIC
Source text: as §1, §2, §3, §4, §5, §6, §7

[3] = test system: Candida albicans ATCC 10231; experiment: Broth microdilution MIC/MFC; format: cell-based; conditions: for MFC: ATCC10231, read-out: MFC; for MIC: ATCC10231, read-out: MIC
Source text: as §1, §2, §3, §4, §5, §6, §7

[4] = test system: Candida parapsilosis ATCC 22019; experiment: Broth microdilution MIC/MFC; format: cell-based; conditions: for MIC: ATCC22019, read-out: MIC
Source text: as §1, §2, §3, §4, §5, §6, §7

[5] = test system: Candida krusei ATCC 14243; experiment: Broth microdilution MIC/MFC; format: cell-based; conditions: Pichia kudriavzevii, ATCC14243, read-out: MIC
Source text: as §1, §2, §3, §4, §5, §6, §7

[6] = test system: Bacillus subtilis ATCC 6633; experiment: Broth microdilution MIC/MBC; format: cell-based; conditions: for MBC: ATCC6633; for MIC: ATCC6633, read-out: MIC
Source text: Detailed procedures are presented in the Supplementary Materials. […]
as §1, §2, §3, §4, §5, §6, §7

[7] = test system: Enterococcus faecalis ATCC 29212; experiment: Broth microdilution MIC/MBC; format: cell-based; conditions: for MIC: ATCC29212, read-out: MIC; for MBC: ATCC29212, read-out: MBC
Source text: as §1, §2, §3, §4, §5, §6, §7

[8] = test system: Escherichia coli ATCC 25922; experiment: Broth microdilution MIC/MBC; format: cell-based; conditions: ATCC25922
Source text: as §1, §2, §3, §4, §5, §6, §7

[9] = test system: Bordetella bronchiseptica ATCC 4617; experiment: Broth microdilution MIC/MBC; format: cell-based; conditions: ATCC4617
Source text: as §1, §2, §3, §4, §5, §6, §7

[10] = test system: Klebsiella pneumoniae ATCC 13883; experiment: Broth microdilution MIC/MBC; format: cell-based; conditions: ATCC13883
Source text: as §1, §2, §3, §4, §5, §6, §7

[11] = test system: Bacillus cereus ATCC 10876; experiment: Broth microdilution MIC/MBC; format: cell-based; conditions: for MBC: ATCC10876
Source text: as §1, §2, §3, §4, §5, §6, §7

[12] = test system: Pseudomonas aeruginosa ATCC 9027; experiment: Broth microdilution MIC/MBC; format: cell-based; conditions: ATCC9027
Source text: as §1
as §2, with “antimicrobials.” for “antimicrobials. All the used microbial cultures were first subcultured on nu-trient agar or Sabouraud agar at 35°C for 18-24 h or 30°C for 24-48 h for bacteria and fungi,”
(§8) Samples containing examined compounds were dissolved in dimethyl sulfoxide (DMSO). […]
as §6, §7

[13] = test system: Micrococcus luteus ATCC 10240; experiment: Broth microdilution MIC/MBC; format: cell-based; conditions: for MBC: ATCC10240; for MIC: ATCC10240, read-out: MIC
Source text: as §1
as §2, with “antimicrobials.” for “antimicrobials. All the used microbial cultures were first subcultured on nu-trient agar or Sabouraud agar at 35°C for 18-24 h or 30°C for 24-48 h for bacteria and fungi,”
as §8, §6, §7

[14] = test system: Staphylococcus epidermidis ATCC 12228; experiment: Broth microdilution MIC/MBC; format: cell-based; conditions: for MBC: ATCC12228; for MIC: ATCC12228, read-out: MIC
Source text: as §1
as §2, with “antimicrobials.” for “antimicrobials. All the used microbial cultures were first subcultured on nu-trient agar or Sabouraud agar at 35°C for 18-24 h or 30°C for 24-48 h for bacteria and fungi,”
as §8, §6, §7

[15] = test system: Staphylococcus aureus ATCC 29213; experiment: Broth microdilution MIC/MBC; format: cell-based; conditions: for MBC / MIC: ATCC29213
Source text: as §1
as §2, with “antimicrobials.” for “antimicrobials. All the used microbial cultures were first subcultured on nu-trient agar or Sabouraud agar at 35°C for 18-24 h or 30°C for 24-48 h for bacteria and fungi,”
as §8, §6, §7

[16] = test system: Staphylococcus aureus ATCC 43300; experiment: Broth microdilution MIC/MBC; format: cell-based; conditions: Staphylococcus aureus ATCC 43300 (MRSA)
Source text: as §1
as §2, with “antimicrobials.” for “antimicrobials. All the used microbial cultures were first subcultured on nu-trient agar or Sabouraud agar at 35°C for 18-24 h or 30°C for 24-48 h for bacteria and fungi,”
as §8, §6, §7

[17] = test system: Proteus mirabilis ATCC 12453; experiment: Broth microdilution MIC/MBC; format: cell-based; conditions: ATCC12453
Source text: as §1
as §2, with “antimicrobials.” for “antimicrobials. All the used microbial cultures were first subcultured on nu-trient agar or Sabouraud agar at 35°C for 18-24 h or 30°C for 24-48 h for bacteria and fungi,”
as §8, §6, §7

[18] = test system: Salmonella typhimurium ATCC 14028; experiment: Broth microdilution MIC/MBC; format: cell-based; conditions: Salmonella enterica
Source text: as §1
as §2, with “antimicrobials.” for “antimicrobials. All the used microbial cultures were first subcultured on nu-trient agar or Sabouraud agar at 35°C for 18-24 h or 30°C for 24-48 h for bacteria and fungi,”
as §8, §6, §7

Row | Structure (SMILES) | MIC [1] | MIC [2] | MIC [3] | MIC ([4]; Lodderomyces parapsilosis) | MIC [5] | melting point | MBC/MIC [6] | MBC [6] | MIC [6] | MIC [7] | MIC [8] | MIC [9] | MIC [10] | MBC/MIC [11] | MBC [11] | MIC ([11]; ATCC10876, read-out: MIC) | MIC [12] | MBC/MIC [13] | MBC [13] | MIC [13] | also measured
1 | CCCOc1ccc(/C=N/NC(=O)c2ccc(O)cc2O)cc1 [Compound 6, 2,4-dihydroxy-N-[(4-propoxyphenyl)methylidene]benzohydrazide] | > 1000 µg/mL | 500 µg/mL (≈ 1.59 mM) | 1000 µg/mL (≈ 3.18 mM) | 1000 µg/mL (≈ 3.18 mM) | > 1000 µg/mL | 251 °C | > 1 | > 1000 µg/mL | 1000 µg/mL (≈ 3.18 mM) | > 1000 µg/mL | > 1000 µg/mL | > 1000 µg/mL | > 1000 µg/mL | > 1 | > 1000 µg/mL | 1000 µg/mL (≈ 3.18 mM) | > 1000 µg/mL | > 1 | > 1000 µg/mL | 1000 µg/mL (≈ 3.18 mM) | MFC/MIC [2]: > 2; MFC [2]: > 1000 µg/mL; MFC/MIC [3]: > 1; MFC [3]: > 1000 µg/mL; MFC/MIC [4]: > 1; MFC ([4]; Lodderomyces parapsilosis, ATCC22019, read-out: MFC): > 1000 µg/mL; MBC/MIC [14]: > 1; MBC [14]: > 1000 µg/mL; MIC [14]: 1000 µg/mL (≈ 3.18 mM); MBC/MIC [15]: > 1; MBC [15]: > 1000 µg/mL; MIC [15]: 1000 µg/mL (≈ 3.18 mM); MBC [16]: > 1000 µg/mL; MBC/MIC [16]: > 1; MIC [16]: 1000 µg/mL (≈ 3.18 mM); MIC [17]: > 1000 µg/mL; MIC [18]: > 1000 µg/mL
2 | COc1ccc(/C=N/NC(=O)c2ccc(O)cc2O)cc1Cl [Compound 9, N-[(3-chloro-4-methoxyphenyl)methylidene]-2,4-dihydroxybenzohydrazide] | > 1000 µg/mL | > 1000 µg/mL | > 1000 µg/mL | > 1000 µg/mL | > 1000 µg/mL | 256 °C | 4 | 500 µg/mL (≈ 1.56 mM) | 125 µg/mL (≈ 0.39 mM) | 125 µg/mL (≈ 0.39 mM) | > 1000 µg/mL | > 1000 µg/mL | > 1000 µg/mL | 4 | 62.5 µg/mL (≈ 0.195 mM) | 15.6 µg/mL (≈ 0.0487 mM) | > 1000 µg/mL | 4 | 500 µg/mL (≈ 1.56 mM) | 125 µg/mL (≈ 0.39 mM) | MBC/MIC [7]: 4; MBC [7]: 500 µg/mL (≈ 1.56 mM); MIC [11]: 15.62 µg/mL (≈ 0.0487 mM); MBC/MIC [14]: 2; MBC [14]: 125 µg/mL (≈ 0.39 mM); MIC [14]: 62.5 µg/mL (≈ 0.195 mM); MBC/MIC [15]: 1; MBC [15]: 31.2 µg/mL (≈ 0.0974 mM); MIC [15]: 31.2 µg/mL (≈ 0.0974 mM); MBC [16]: 62.5 µg/mL (≈ 0.195 mM); MBC/MIC [16]: 4; MIC [16]: 15.6 µg/mL (≈ 0.0487 mM); MIC [17]: > 1000 µg/mL; MIC [18]: > 1000 µg/mL
3 | CCOc1ccc(/C=N/NC(=O)c2ccc(O)cc2O)cc1 [Compound 5, N-[(4-ethoxyphenyl)methylidene]-2,4-dihydroxybenzohydrazide] | > 1000 µg/mL | 500 µg/mL (≈ 1.66 mM) | 1000 µg/mL (≈ 3.33 mM) | > 1000 µg/mL | > 1000 µg/mL | 248 °C | > 2 | > 1000 µg/mL | 500 µg/mL (≈ 1.66 mM) | 1000 µg/mL (≈ 3.33 mM) | > 1000 µg/mL | > 1000 µg/mL | > 1000 µg/mL | > 2 | > 1000 µg/mL | 500 µg/mL (≈ 1.66 mM) | > 1000 µg/mL | > 2 | > 1000 µg/mL | 500 µg/mL (≈ 1.66 mM) | MFC/MIC [2]: > 2; MFC [2]: > 1000 µg/mL; MFC/MIC [3]: > 1; MFC [3]: > 1000 µg/mL; MBC/MIC [7]: > 1; MBC [7]: > 1000 µg/mL; MIC [14]: > 1000 µg/mL; MBC/MIC [15]: > 1; MBC [15]: > 1000 µg/mL; MIC [15]: 1000 µg/mL (≈ 3.33 mM); MIC [16]: > 1000 µg/mL; MIC [17]: > 1000 µg/mL; MIC [18]: > 1000 µg/mL
